Tests used:
[1] = tested on: human iPSC-derived cardiomyocytes; details: standard donor 1434 compared to the other 4 donors; ref [36]; cited from earlier work
[2] = tested on: human iPSC-derived cardiomyocytes; test: Ca2+ flux assay; type: cell-based; details: for critical endpoint (most sensitive phenotype): phenotype with lowest POD for the population median

COc1cc(N)c(Cl)cc1C(=O)NC1CCN(CCCOc2ccc(F)cc2)CC1OC (centres unmarked) [Cisapride, cisapride]
efficacy (Emax, maximum increase in decay-rise ratio) [1]: greatest efficacy

CC(C)NCC(O)c1ccc(O)c(O)c1 (centres unmarked) [Isoproterenol]
effect on beat rate ([+] chronotropy positive control) ([2]; 10 μM, 90 min exposure, 5 donors, response vs vehicle control): expected effects on beat rate

CC/C(=C(\c1ccccc1)c1ccc(OCCN(C)C)cc1)c1ccccc1 [tamoxifen]
critical endpoint (most sensitive phenotype) [2]: did not exhibit decay-rise ratio as the critical endpoint

CC(C)NCC(O)COc1cccc2ccccc12 (centres unmarked) [propranolol]
effect on beat rate ([-] chronotropy positive control) ([2]; 0.5 μM, 90 min exposure, 5 donors, response vs vehicle control): expected effects on beat rate

COCCc1ccc(OCC(O)CNC(C)C)cc1 (centres unmarked) [metoprolol]
critical endpoint (most sensitive phenotype) [2]: did not exhibit decay-rise ratio as the critical endpoint
